Test results: US8324268B2, “Substituted furancarboxamides, and use thereof” (AiCuris GmbH & Co. KG, priority 2008, dated 2012)

Legend:
Format in all cases: cell-based
[1] = tested on: HIV-1LAI; assay: H9 assay with wild-type HIV-1 (HIV-1LAI supernatant infection, AlamarBlue); conditions: Human immunodeficiency virus 1, H9 cells, 10% FCS
Description: For the mixture for a 96-well MTP, 3 million PBLs are pelleted, suspended in 1 ml of RPMI 1640 medium/10% FCS and incubated together with a suitable amount of HIV-1LAI (NIH AIDS Research & Reference Reagent Program, Germantown, USA) at 37° C. for 2 hours (pellet infection). Unadsorbed viruses are subsequently washed out with PBS, and the infected cells are pelleted again and suspended in 18 ml of RPMI 1640 medium/10% FCS/interleukin-2 (40 U/ml). 180 μl thereof are pipetted into each well of a white 96-well MTP with 20 μl of test substance in suitable dilution. Alternatively, after preparation of the substance dilutions in the MTP, the HIV is pipetted in together with the cells and is not washed out again (supernatant infection). In order to avoid edge effects, the wells at the edge of the MTP are not used for substance dilutions. The second vertical row of the MTP contains only infected cells (virus control) and the eleventh vertical row only uninfected cells (cell control), in each case in RPMI 1640 medium/10% FCS/interleukin-2 (40 U/ml). The other wells of the MTP contain the compounds of the invention in various concentrations starting from the third vertical row, from which the test substances are diluted in 3-fold steps up to the tenth vertical row 3^7-fold. The test substances are dissolved in DMSO, whereby the final DMSO concentration in the test mixture is 1%. The test mixtures are incubated at 37° C./5% CO2. After 5 and 7 days, 50 μl of cell-free supernatant are removed from each well to determine the amount of p24 present by means of a p24 ELISA (HIV-1 p24^CA Antigen Capture Assay Kit, NCI-Frederick Cancer Research and Development Center, Frederick, USA). From the resulting values of the photometric evaluation (450/620 nm) the EC50 values of the test substances are determined as the concentration at which the amount of p24 is 50% of the untreated infected cells.
Alternatively, H9 cells (ATCC, Wesel, Germany) are employed instead of PBLs for testing the test substances. H9 cells are incubated in RPMI 1640 medium with 2% or 10% FCS as a HIV-ILAI supernatant infection at 37° C./5% CO2, (20 μl of substance dilution and 80 μl of cells/virus per well) in accordance with the pattern described above for 5 days. Subsequently, 10 μl of AlamarBlue® (Invitrogen, Karlsruhe, Germany) are added to each well, and the MTPs are incubated at 37° C. for 3 hours before the fluorimetric evaluation takes place (544/590 nm). The resulting values are about 40 000 for the untreated uninfected cells and about 7000 for the untreated infected cells. In the low concentration range, the EC50 values of the test substances are determined as the concentration at which the fluorescence is 50% of the untreated uninfected cells (in each case subtracting the values of the untreated infected cells). In addition, in the high concentration range, the CC50 values of the test substances are determined as the concentration at which the fluorescence is 50% of the untreated uninfected cells (in each case subtracting the values of the untreated infected cells).

[2] = tested on: HIV-1NL4-3 wt; assay: Light assay with wild-type HI reporter virus in MT4 7F2 cells; conditions: Human immunodeficiency virus 1, 2% FCS
Description: (§1) For the mixture for a 96-well MTP, 3 million MT4 7F2 cells are pelleted, suspended in 1 ml of RPMI 1640 medium without phenol red (Invitrogen, Karlsruhe, Germany)/10% FCS/10% AIM-V (Invitrogen, Karlsruhe, Germany) and incubated together with a suitable amount of the corresponding HIV-1NL4-3 reporter virus at 37° C. for 2 hours (pellet infection). Unadsorbed viruses are subsequently washed out with PBS, and the infected cells are pelleted again and suspended in 8 ml of RPMI 1640 medium without phenol red/2% or 10% FCS/10% AIM-V. 80 μl thereof are pipetted into each well of a white 96-well MTP with 20 μl of test substance in suitable dilution. To avoid edge effects, the wells on the edge of the MTP are not used for substance dilutions. The second vertical row of the MTP contains only infected cells (virus control) and the eleventh vertical row only uninfected cells (cell control), in each case in RPMI 1640 medium without phenol red/2% or 10% FCS/10% AIM-V. The other wells of the MTP contain the compounds of the invention in various concentrations starting from the third vertical row, from which the test substances are diluted in 3-fold steps up to the tenth vertical row 3^7-fold. The test substances are dissolved in DMSO, whereby the final DMSO concentration in the test mixture is 1%. The test mixtures are incubated at 37° C./5% CO2 for five days and, after the addition of 15 μl of Lu164 substrate (5 mg/ml coelenterazine dissolved in 30 μM glutathione/DMSO, 100 mM NaCl, 1M MES, 100 mM glutathione), evaluated by luminometry. The resulting values are in the region of 1 000 000 RLUs (relative light units) for the virus control and 300 to 400 RLUs for the cell control. The EC50 values of the test substances are determined as the concentration at which the virus replication measured in RLUs is 50% of the untreated infected cells.

[3] = tested on: HIV-1NL4-3 K103N-Y181C; assay: Light assay with inhibitor-resistant HI reporter virus in MT4 7F2 cells; conditions: Human immunodeficiency virus 1, read-out: EC50 (nM) MT4 7F2 cells HIV-1NL4-3 K103N-Y181C 2% FCS
Description: as §1

| Structure (SMILES) | EC50 [1] [nM] | EC50 [2] [nM] | EC50 [3] [nM] |
| --- | --- | --- | --- |
| O=C1CN(C(=O)c2cc(-c3cc(F)cc(F)c3)c(-c3cccc(Cl)c3)o2)CCN1 [Example 17, 4-{[5-(3-Chlorophenyl)-4-(3,5-difluorophenyl)furan-2-yl]carbonyl}piperazin-2-one] | 135 | 6 | 350 |
| N#Cc1cc(-c2oc(C(=O)N3CCNC(=O)C3)cc2-c2cccc(Cl)c2)ccc1F [Example 24, 5-{3-(3-Chlorophenol)-5-[(3-oxopiperazin-1-yl)carbonyl]furan-2-yl}-2-fluorobenzenecarbonitrile] | 47 | 4 | 320 |
| N#Cc1cc(-c2oc(C(=O)N3CNC(=O)C3)cc2-c2cc(F)cc(Cl)c2)ccc1F [Example 23, 5-{3-(3-Chloro-5-fluorophenyl)-5-[(4-oxoimidazolidin-1-yl)carbonyl]furan-2-yl}-2-fluorobenzenecarbonitrile] | 18 | 2 | 100 |
| N#Cc1cc(-c2oc(C(=O)N3CNC(=O)C3)cc2-c2cccc(Cl)c2)ccc1F [Example 26, 5-{3-(3-Chlorophenyl)-5-[(4-oxoimidazolidin-1-yl)carbonyl]furan-2-yl}-2-fluorobenzenecarbonitrile] | 150 | 20 | 250 |
| N#Cc1cc(F)cc(-c2cc(C(=O)N3CNC(=O)C3)oc2-c2cccc(Cl)c2)c1 [Example 32, 3-{2-(3-Chlorophenyl)-5-[(4-oxoimidazolidin-1-yl)carbonyl]furan-3-yl}-5-fluorobenzenecarbonitrile] | 70 | 2 | 150 |
| N#Cc1cc(F)cc(-c2cc(C(=O)N3CNC(=O)C3)oc2-c2ccc(F)c(Cl)c2)c1 [Example 31, 3-{2-(3-Chloro-4-fluorophenyl)-5-[(4-oxoimidazolidin-1-yl)carbonyl]furan-3-yl}-5-fluorobenzenecarbonitrile] | 80 | 8 | 80 |
| O=C1CN(C(=O)c2cc(-c3cc(F)cc(Cl)c3)c(-c3cccc(Cl)c3)o2)CCN1 [Example 14, 4-{[4-(3-Chloro-5-fluorophenyl)-5-(3-chlorophenyl)furan-2-yl]carbonyl}piperazin-2-one] | 52 | 1 | 173 |
| N#Cc1cccc(-c2oc(C(=O)N3CC[S+]([O-])C3)cc2-c2cc(F)cc(Cl)c2)c1 (stereo not drawn) [Example 3, 3-{3-(3-Chloro-5-fluorophenyl)-5-[(1-oxido-1,3-thiazolidin-3-yl)carbonyl]furan-2-yl}benzenecarbonitrile] | 4.5 | < 1.5 | 160 |
| O=C(c1cc(-c2cc(F)cc(Cl)c2)c(-c2ccc(F)c(Cl)c2)o1)N1CC[S+]([O-])C1 (stereo not drawn) [Example 4, [5-(3-Chloro-4-fluorophenyl-1)-4-(3-chloro-5-fluorophenyl)furan-2-yl](1-oxido-1,3-thiazolidin-3-yl)methanone] | 12 | < 1.5 | 261 |
| O=C(c1cc(-c2cc(F)cc(Cl)c2)c(-c2ccc(F)c(Cl)c2)o1)N1CCOCC1 [Example 9, [5-(3-Chloro-4-fluorophenyl)-4-(3-chloro-5-fluorophenyl)furan-2-yl](morpholin-4-yl)methanone] | 100 | 19 | 500 |
| N#Cc1cccc(-c2oc(C(=O)N3CCSC3)cc2-c2cc(F)cc(Cl)c2)c1 [Example 1, 3-[3-(3-Chloro-5-fluorophenyl)-5-(1,3-thiazolidin-3-ylcarbonyl)furan-2-yl]benzenecarbonitrile] | 65 | 4.5 | 550 |
| O=C(c1cc(-c2cc(F)cc(Cl)c2)c(-c2ccc(F)c(Cl)c2)o1)N1CCSC1 [Example 2, [5-(3-Chloro-4-fluorophenyl)-4-(3-chloro-5-fluorophenyl)furan-2-yl](1,3-thiazolidin-3-yl)methanone] | 135 | 40 | 1620 |
| COc1cccc(-c2oc(C(=O)N3CNC(=O)C3)cc2-c2cccc(Cl)c2)c1 [Example 27, 1-{[4-(3-Chlorophenyl)-5-(3-methoxyphenyl)furan-2-yl]carbonyl}imidazolidin-4-one] | 200 | 14 | 700 |
| N#Cc1cccc(-c2oc(C(=O)N3CC[C@@H](O)C3)cc2-c2cc(F)cc(Cl)c2)c1 [Example 10, 3-[3-(3-Chloro-5-fluorophenyl)-5-{[(3R)-3-hydroxypyrrolidin-1-yl]carbonyl}furan-2-yl]benzenecarbonitrile] | 14 | 1 | 183 |
| N#Cc1cc(F)cc(-c2cc(C(=O)N3CCOCC3)oc2-c2cccc(C#N)c2)c1 [Example 34, 3-[2-(3-Cyanophenyl)-5-(morpholin-4-ylcarbonyl)furan-3-yl]-5-fluorobenzenecarbonitrile] | 30 | < 1.5 | 300 |
| O=C1CN(C(=O)c2cc(-c3cc(F)cc(F)c3)c(-c3cccc(Cl)c3)o2)CN1 [Example 15, 1-{[5-(3-Chlorophenyl-1)-4-(3,5-difluorophenyl)furan-2-yl]carbonyl}imidazolidin-4-one] | 110 | 9 | 350 |
| N#Cc1cccc(-c2oc(C(=O)N3CCNC(=O)C3)cc2-c2cc(F)cc(Cl)c2)c1 [Example 8, 3-{3-(3-Chloro-5-fluorophenyl)-5-[(3-oxopiperazin-1-yl)carbonyl]furan-2-yl}benzenecarbonitrile] | 7 | 1 | 160 |
| N#Cc1cccc(-c2oc(C(=O)N3CCNC(=O)C3)cc2-c2cccc(Cl)c2)c1 [Example 20, 3-{3-(3-Chlorophenol)-5-[(3-oxopiperazin-1-yl)carbonyl]furan-2-yl}benzenecarbonitrile] | 50 | 2 | 137 |
| N#Cc1cccc(-c2oc(C(=O)N3CNC(=O)C3)cc2-c2cc(F)cc(Cl)c2)c1 [Example 12, 3-{3-(3-Chloro-5-fluorophenyl)-5-[(4-oxoimidazolidin-1-yl)carbonyl]furan-2-yl}benzenecarbonitrile] | 30 | 2 | 163 |
| O=C1CN(C(=O)c2cc(-c3cccc(Cl)c3)c(-c3ccc(F)c(F)c3)o2)CCN1 [Example 19, 4-{[4-(3-Chlorophenyl)-5-(3,4-difluorophenyl)furan-2-yl]carbonyl}piperazin-2-one] | 250 | 43 | 450 |
| O=C1CN(C(=O)c2cc(-c3cc(F)cc(Cl)c3)c(-c3cccc(Cl)c3)o2)CN1 [Example 16, 1-{[4-(3-Chloro-5-fluorophenyl)-5-(3-chlorophenyl)furan-2-yl]carbonyl}imidazolidin-4-one] | 75 | 2 | 200 |
